Converted amounts (≈) assume the structure as drawn.
Legend:
Assay type in all cases: functional
Staphylococcus aureus [1] = experiment: Antibacterial activity against methicillin resistant Staphylococcus aureus assessed as reduction in bacterial growth incubated for 20 hrs by broth microdilution assay
Bacillus subtilis = experiment: Antibacterial activity against Bacillus subtilis assessed as reduction in bacterial growth incubated for 20 hrs by broth microdilution assay
Staphylococcus aureus [2] = experiment: Antibacterial activity against methicillin susceptible Staphylococcus aureus assessed as reduction in bacterial growth incubated for 20 hrs by broth microdilution assay
Escherichia coli = experiment: Antibacterial activity against Escherichia coli assessed as reduction in bacterial growth incubated for 20 hrs by broth microdilution assay

| Compound | MIC50 (Staphylococcus aureus [1]) [µM] | MIC (Bacillus subtilis) [µM] | MIC (Staphylococcus aureus [2]) [µM] | MIC50 (Staphylococcus aureus [2]) [µM] | MIC50 (Escherichia coli) [µM] | MIC (Staphylococcus aureus [1]) [µM] |
| --- | --- | --- | --- | --- | --- | --- |
| C=C(C)[C@@H]1CC[C@](C)(O)[C@H](C2=C(O)C(CC=C(C)C)(CC=C(C)C)C(=O)C(C(=O)CC(C)C)=C2O)C1 | 2 (≈ 0.997 µg/mL) | 2 (≈ 0.997 µg/mL) | 1 to 2 (≈ 0.499 to 0.997 µg/mL) | 2 (≈ 0.997 µg/mL) | > 64 | – |
| CC(C)=CCC1(CC=C(C)C)C(=O)C(C(=O)CC(C)C)=C(O)C([C@@H]2C=C(C(C)C)CC[C@]2(C)O)=C1O | 4 (≈ 1.99 µg/mL) | 4 (≈ 1.99 µg/mL) | 4 (≈ 1.99 µg/mL) | 4 (≈ 1.99 µg/mL) | > 64 | 4 to 8 (≈ 1.99 to 3.99 µg/mL) |
| CCC(C)C(=O)C1=C(O)C([C@@H]2C=C(C(C)C)CC[C@]2(C)O)=C(O)C(CC=C(C)C)(CC=C(C)C)C1=O (stereo partly specified) | 8 (≈ 3.99 µg/mL) | 4 (≈ 1.99 µg/mL) | 4 to 8 (≈ 1.99 to 3.99 µg/mL) | 8 (≈ 3.99 µg/mL) | > 64 | – |
